Data taken from ChEMBL document CHEMBL5252615, “Synthesis, biological activity and mechanism of action of novel allosecurinine derivatives as potential antitumor agents” (Bioorg Med Chem, 2023).
Activity calls are given as the source filed them. The rule behind the calls is not given here.

How the values were obtained:
HL-60 [1] = assay: Induction of apoptosis in human HL-60 cells assessed as necrotic cells at 2.5 uM after 48 hrs by Annexin-V-FITC/PI staining based flow cytometric analysis (reference value: 2.83%); type: functional
THP-1 [2] = assay: Induction of reactive oxygen species production in human THP-1 cells at 1 to 5 uM measured after 48 hrs by DCF fluorescence analysis; type: functional, cell-based; details: dose 1-5 µM
THP-1 [3] = assay: Induction of differentiation of human THP1 cells assessed as increase in CD11b expression at 0.5 uM measured after 72 hrs by flow cytometric analysis; type: functional, cell-based
THP-1 [4] = assay: Induction of apoptosis in human THP-1 cells assessed as viable cells at 2.5 uM after 48 hrs by Annexin-V-FITC/PI staining based flow cytometric analysis (reference value: 93.94%); type: functional; details: read-out: Activity
U-937 [5] = assay: Induction of reactive oxygen species production in human U-937 cells at 1 to 5 uM measured after 48 hrs by DCF fluorescence analysis; type: functional, cell-based; details: dose 1-5 µM
THP-1 [6] = assay: Induction of apoptosis in human THP-1 cells assessed as necrotic cells at 2.5 uM after 48 hrs by Annexin-V-FITC/PI staining based flow cytometric analysis (reference value: 0.19%); type: functional
THP-1 [7] = assay: Induction of apoptosis in human THP-1 cells assessed as change in mitochondrial membrane potential after 48 hrs by JC-1 staining based flow cytometric analysis; type: functional, cell-based
K562 [8] = assay: Induction of apoptosis in human K562 cells assessed as decrease in expression level of XIAP measured at 1 to 5 uM after 48 hrs by Western blotting analysis; type: functional, cell-based; details: dose 1-5 µM
NB-4 [9] = assay: Induction of apoptosis in human NB4 cells assessed as accumulation of cells at sub-G1 phase at 2.5 uM after 48 hrs by PI staining based flow cytometric analysis; type: functional, cell-based
HL-60 [10] = assay: Induction of apoptosis in human HL-60 cells assessed as late apoptotic cells at 2.5 uM after 48 hrs by Annexin-V-FITC/PI staining based flow cytometric analysis (reference value: 0.44%); type: functional
KG-1 [11] = assay: Induction of apoptosis in human KG-1 cells assessed as necrotic cells at 2.5 uM after 48 hrs by Annexin-V-FITC/PI staining based flow cytometric analysis (reference value: 2.73%); type: functional
SK-OV-3 [12] = assay: Antitumor activity against human SK-OV-3 cells assessed as reduction in cell viability incubated for 72 hrs; type: functional, cell-based; details: SK-OV-3, 72 h
THP-1 [13] = assay: Induction of reactive oxygen species production in human THP-1 cells at 1 to 5 uM measured after 48 hrs by DCFH-DA staining based flow cytometric analysis; type: functional, cell-based; details: dose 1-5 µM
HL-60 [14] = assay: Antitumor activity against human HL-60 cells assessed as reduction in cell viability incubated for 72 hrs; type: functional, cell-based; details: HL-60, 72 h
U-937 [15] = assay: Induction of apoptosis in human U-937 cells assessed as early apoptotic cells at 2.5 uM after 48 hrs by Annexin-V-FITC/PI staining based flow cytometric analysis (reference value: 2.87%); type: functional
KG-1 [16] = assay: Induction of apoptosis in human KG-1 cells assessed as decrease in expression level of Bcl-2 measured after 48 hrs by Western blotting analysis; type: functional, cell-based; details: dose 1-5 µM
KG-1 [17] = assay: Induction of apoptosis in human KG-1 cells assessed as accumulation of cells at sub-G1 phase at 2.5 uM after 48 hrs by PI staining based flow cytometric analysis; type: functional, cell-based
KG-1 [18] = assay: Induction of apoptosis in human KG-1 cells assessed as late apoptotic cells at 2.5 uM after 48 hrs by Annexin-V-FITC/PI staining based flow cytometric analysis (reference value: 0.16%); type: functional
KG-1 [19] = assay: Antitumor activity against human KG-1 cells assessed as reduction in cell viability incubated for 72 hrs; type: functional, cell-based; details: KG-1, 72 h
THP-1 [20] = assay: Antitumor activity against human THP-1 cells assessed as reduction in cell viability incubated for 72 hrs; type: functional, cell-based; details: THP-1, 72 h
THP-1 [21] = assay: Induction of apoptosis in human THP-1 cells assessed as increase in expression level of p21 measured at 1 to 5 uM after 48 hrs by Western blotting analysis; type: functional, cell-based; details: dose 1-5 µM
U-937 [22] = assay: Induction of apoptosis in human U-937 cells assessed as increase in expression level of p21 measured at 1 to 5 uM after 48 hrs by Western blotting analysis; type: functional, cell-based; details: dose 1-5 µM
NB-4 [23] = assay: Induction of apoptosis in human NB4 cells assessed as decrease in expression level of Bcl-2 measured after 48 hrs by Western blotting analysis; type: functional, cell-based; details: dose 1-5 µM
HL-60 [24] = assay: Induction of apoptosis in human HL-60 cells assessed as viable cells at 2.5 uM after 48 hrs by Annexin-V-FITC/PI staining based flow cytometric analysis (reference value: 96.05%); type: functional; details: read-out: Activity
U-937 [25] = assay: Induction of apoptosis in human U-937 cells assessed as decrease in expression level of PARP measured at 1 to 5 uM after 48 hrs by Western blotting analysis; type: functional, cell-based; details: dose 1-5 µM
U-937 [26] = assay: Induction of apoptosis in human U-937 cells assessed as accumulation of cells at sub-G1 phase at 2.5 uM after 48 hrs by PI staining based flow cytometric analysis; type: functional, cell-based
THP-1 [27] = assay: Induction of apoptosis in human THP-1 cells assessed as accumulation of cells at sub-G1 phase at 2.5 uM after 48 hrs by PI staining based flow cytometric analysis; type: functional, cell-based
KG-1 [28] = assay: Induction of differentiation of human KG-1 cells assessed as increase in CD11b expression at 0.5 uM measured after 72 hrs by flow cytometric analysis; type: functional, cell-based
THP-1 [29] = assay: Induction of apoptosis in human THP-1 cells assessed as decrease in expression level of Bcl-2 measured after 48 hrs by Western blotting analysis; type: functional, cell-based; details: dose 1-5 µM
THP-1 [30] = assay: Induction of apoptosis in human THP-1 cells assessed as late apoptotic cells at 2.5 uM after 48 hrs by Annexin-V-FITC/PI staining based flow cytometric analysis (reference value: 1.26%); type: functional
K562 [31] = assay: Induction of apoptosis in human K562 cells assessed as decrease in expression level of Bcl-2 measured after 48 hrs by Western blotting analysis; type: functional, cell-based; details: dose 1-5 µM
K562 [32] = assay: Induction of apoptosis in human K562 cells assessed as accumulation of cells at sub-G1 phase at 2.5 uM after 48 hrs by PI staining based flow cytometric analysis; type: functional, cell-based
SK-OV-3 [33] = assay: Antitumor activity against taxol-resistant human SK-OV-3 cells assessed as reduction in cell viability incubated for 72 hrs; type: functional, cell-based; details: SK-OV-3, 72 h
KG-1 [34] = assay: Induction of reactive oxygen species production in human KG-1 cells at 1 to 5 uM measured after 48 hrs by DCF fluorescence analysis; type: functional, cell-based; details: dose 1-5 µM
K562 [35] = assay: Induction of apoptosis in human K562 cells assessed as necrotic cells at 2.5 uM after 48 hrs by Annexin-V-FITC/PI staining based flow cytometric analysis (reference value: 1.19%); type: functional
NB-4 [36] = assay: Induction of apoptosis in human NB4 cells assessed as decrease in expression level of XIAP measured at 1 to 5 uM after 48 hrs by Western blotting analysis; type: functional, cell-based; details: dose 1-5 µM
HL-60 [37] = assay: Induction of apoptosis in human HL-60 cells assessed as early apoptotic cells at 2.5 uM after 48 hrs by Annexin-V-FITC/PI staining based flow cytometric analysis (reference value: 0.68%); type: functional
U-937 [38] = assay: Induction of reactive oxygen species production in human U-937 cells at 1 to 5 uM measured after 48 hrs by DCFH-DA staining based flow cytometric analysis; type: functional, cell-based; details: dose 1-5 µM

O=C1O[C@@]23C[C@@H](C=CC2=C1C(O)c1ccc([N+](=O)[O-])cc1)N1CCCC[C@H]13 (stereo partly drawn)
Activity (HL-60 [1]): 2.42% | Activity (THP-1 [2]): Active | Activity (THP-1 [3]): Active | viability at 2.5 µM (THP-1 [4]): 69.7% | Activity (U-937 [5]): Active | Activity (THP-1 [6]): 1.76% | Activity (THP-1 [7]): Active | Activity (K562 [8]): Active | Activity (NB-4 [9]): Active | Activity (HL-60 [10]): 6.43% | Activity (KG-1 [11]): 7.79% | IC50 (SK-OV-3 [12]): 4.84 µM | Activity (THP-1 [13]): Active | IC50 (HL-60 [14]): 3.95 µM | Activity (U-937 [15]): 13.42% | Activity (KG-1 [16]): Dose-Dependent Effect | Activity (KG-1 [17]): Active | Activity (KG-1 [18]): 46.7% | IC50 (KG-1 [19]): 1.06 µM | IC50 (THP-1 [20]): 2.84 µM | Activity (THP-1 [21]): Active | Activity (U-937 [22]): Active | Activity (NB-4 [23]): Dose-Dependent Effect | viability at 2.5 µM (HL-60 [24]): 73% | Activity (U-937 [25]): Active | Activity (U-937 [26]): Active | Activity (THP-1 [27]): Active | Activity (KG-1 [28]): Active | Activity (THP-1 [29]): Dose-Dependent Effect | Activity (THP-1 [30]): 11.77% | Activity (K562 [31]): Dose-Dependent Effect | Activity (K562 [32]): Active | IC50 (SK-OV-3 [33]): 3.68 µM | Activity (KG-1 [34]): Active | Activity (K562 [35]): 6.62% | Activity (NB-4 [36]): Active | Activity (HL-60 [37]): 18.2% | Activity (U-937 [38]): Active
